According to patent US20200237698A1, “Viral Inhibitor” (priority 2017, published 2020):

Tests used:
[1] = test system: human Adenovirus Type 5 (dE1/E3) containing GFP (Ad-GFP); assay: Ad-GFP infection of HEp2 cells evaluated by fluorescent microscope; format: cell-based; details: 10 μM, HEp2, 20 MOI, 24 hours
EBOV fusion protein = EBOV fusion protein (Zaire ebolavirus, UniProt Q05320); format: cell-based, Ebola
[2] = test system: all three classes of fusion proteins, including Zika, EBOV, influenza A virus (IAV), SFV, VEEV, VSV and EBV; format: cell-based; details: for fusion blocked: 10 μM
HCMV-GFP = HCMV-GFP infection of HFF evaluated by fluorescent microscope; format: cell-based; details: 7 days
HSV-1 F' [3] = assay: GA added to already HSV-1 infected HEp2 and 293T cells, WB detection of HSV-1 proteins; format: cell-based; details: 10 μM added 2 hours after infection at 1 MOI
ZIKV (strain PRVABC59) = assay: ZIKV infection of Normal Human Astrocytes, Zika viral RNA by Taqman real-time PCR; format: cell-based, Zika virus; details: 5 μM to 20 μM, day 7
HSV-1 F' [4] = assay: HSV-1 stock pre-treated with GA, infection of HEp2 or 293T, western blotting of ICP27, ICP8, Us11; format: cell-based; details: 10 MOI stock treated 1 hour with 50 μM, diluted to 0.5 MOI / 2.5 μM; HEp2 and 293T; 5, 10 and 29 hours post-infection
[5] = test system: two clinical isolates of HCMV; assay: HCMV plaque assay in human foreskin fibroblasts; format: cell-based; details: HFF, 0-10 μM GA C15:1, 7 days
HCMV = HCMV DNA copies in infected HFF by qPCR targeting the viral polymerase gene; format: cell-based; details: 7 dpi
[6] = test system: HEp2, 293T, Human foreskin fibroblasts (HFF) and Normal Human Astrocytes (NHAs); assay: Toxicity of GA to the tested cells; details: at the active concentration (not shown)

EBOV fusion protein, sequence (Q05320 33-501 limits assumed): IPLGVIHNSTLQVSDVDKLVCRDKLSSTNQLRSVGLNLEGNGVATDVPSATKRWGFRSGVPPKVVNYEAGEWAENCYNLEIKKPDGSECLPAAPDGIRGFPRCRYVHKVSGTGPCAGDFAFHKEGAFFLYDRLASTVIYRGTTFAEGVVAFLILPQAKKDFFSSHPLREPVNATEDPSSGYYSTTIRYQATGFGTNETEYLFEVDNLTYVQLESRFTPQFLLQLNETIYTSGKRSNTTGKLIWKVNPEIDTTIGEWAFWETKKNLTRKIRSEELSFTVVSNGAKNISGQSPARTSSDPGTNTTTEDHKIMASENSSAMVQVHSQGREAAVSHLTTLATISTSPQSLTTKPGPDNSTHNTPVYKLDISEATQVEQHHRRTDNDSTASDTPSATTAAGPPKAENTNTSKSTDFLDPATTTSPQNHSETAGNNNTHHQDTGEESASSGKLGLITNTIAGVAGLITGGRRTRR
EBOV fusion protein, sequence (Q05320 502-676 limits assumed): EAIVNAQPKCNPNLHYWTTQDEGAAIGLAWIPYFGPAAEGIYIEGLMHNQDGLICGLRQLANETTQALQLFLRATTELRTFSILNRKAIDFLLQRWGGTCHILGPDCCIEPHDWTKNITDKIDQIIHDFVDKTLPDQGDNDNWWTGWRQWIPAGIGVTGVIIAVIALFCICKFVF

| Compound | inhibition of nonenveloped Adenovirus infection [1] | inhibition of Ebola mediated cell-cell fusion (EBOV fusion protein) | fusion blocked [2] | effect on HCMV-GFP infection / plaque formation (HCMV-GFP; 10 μM) | other results |
| --- | --- | --- | --- | --- | --- |
| CCCCCCCCCCCCCc1cccc(O)c1C(=O)O [GA C13:0, Ginkgolic acid (GA) C13:0] | did not inhibit | inhibition of Ebola mediated cell-cell fusion | 100% | strong inhibitory effect on HCMV infection | – |
| CCCCCC/C=C\CCCCCCCc1cccc(O)c1C(=O)O [GA C15:1, ginkgolic acid C15:1] | did not inhibit | inhibition of Ebola mediated cell-cell fusion | 100% | only single cells were infected | HSV-1 protein synthesis in already infected cells (WB) (HSV-1 F' [3]): inhibiting the virus from that point; decrease in Zika viral RNA levels (ZIKV (strain PRVABC59)): 80-90%; HSV-1 infection (ICP27, ICP8, Us11 by WB) (HSV-1 F' [4]): complete inhibition of the virus; HCMV infectivity monitored by plaquing efficiency [5]: inhibited HCMV infectivity |
| CCCCCC/C=C\CCCCCCCCCc1cccc(O)c1C(=O)O [GA C17:1, Ginkgolic Acid C 17:1] | did not inhibit | inhibition of Ebola mediated cell-cell fusion | 100% | strong inhibitory effect on HCMV infection | – |
| Nc1nc(O)c2ncn(COC(CO)CO)c2n1 [GCV, Ganciclovir, reference compound] | – | – | – | – | effect on HCMV-GFP infection / plaque formation (HCMV-GFP; 16 μM GCV): very strong inhibition of the virus |
| Ginkgolic acid [GA] | – | – | – | – | reduction of viral DNA (HCMV; GA added 3 hours after infection): about 80%; HCMV DNA copies, dose dependence (HCMV; different concentrations of GA): reduced in a dose dependent manner; toxicity [6]: no toxicity at the active inhibitory range; fusion after GA was washed [2]: fusion was restored; fusion inhibition with oleic acid (OA) added together with GA [2]: abolished the inhibitory effect of GA |
